Laboratory results taken from patent US9757408B2 (Hayashibara Co., Ltd., priority 2010, dated 2017).
pIC50: −log10 of the molar value. Marks after values point to notes of the source that are not given here.

Key:
[1] = tested on: VCAM-1 expression in HUVEC cells; experiment: Expression of cell-adhesion factor VCAM-1 on HUVEC cells, fluorescent intensity (Experiment 6-3); format: cell-based, human; details: LPS 10 μg/mL, IL-1β, IFN-γ
Experimental: Thereafter, the supernatant in each well was removed by suction, and the cells were washed twice with PBS, followed by adding 4% paraformaldehyde to the cells and allowing them to stand at ambient temperature for one hour to fix them. After the fixation, the cells were washed thrice with PBS, followed by adding PBS containing 1% BSA and 0.05% NaN3 in an amount of 150 μL/well, and subjecting the cells to blocking at 4° C. overnight. […] Thereafter, the cells were washed four times with PBS, adding an HRPO-labeled streptavidin (“Streptavidin HRP Conjugate”, a product name of Invitrogen Corporation, CA, USA), which had been diluted with PBS containing 3% BSA by 1,000 times, in an amount of 100 μL/well and allowing the cells to stand at ambient temperature for one hour. Finally, the cells were washed four times with PBS, allowed to develop color for 10 min with “QuantaBlue™ Fluorogenic Peroxidase Substrate”, commercialized by Pierce Biotechnology, IL, USA, and determined the cells' fluorescent intensity at a wavelength of 325 to 420 nm. […] The results are in Table 6 in parallel.

[2] = tested on: tissue factor expression in HUVEC cells; experiment: Expression of tissue factor in HUVEC cells, ELISA of cell lysate (Experiment 6-2); format: cell-based, human; details: for concentration which significantly inhibited the expression of tissue factor: LPS; for concentration which significantly inhibited the expression of tissue factor / Amount of expressed tissue factor: IL-1β, IFN-γ; for Amount of expressed tissue factor: HUVEC, LPS 10 μg/mL
Experimental: Thereafter, a solution of LPS, IL-1β, and IFN-γ were respectively prepared to give respective concentrations of 10 μg/mL, 2 ng/mL, and 500 IU/mL, added to the cells in an amount of 50 μL/well, and incubated at 37° C. for 5.5 hours in a 5% v/v CO2 incubator. After the culture, the cells were washed twice with PBS, followed by adding PBS to the resulting cells in a volume of 50 μL/well. The multi-plates were subjected to a freezing at −80° C. and thawing process thrice, followed by adding 50 mM Tris buffer (pH 7.4) containing 100 mM NaCl and 0.2% Triton X-100 to the microplates in an amount of 50 μL/well, culturing the cells at 4° C. overnight to prepare a cell lysate. The content of tissue factor in the cell lysate was determined by “AssayMax Human Tissue Factor ELISA Kit”, a product name of ELISA commercialized by Assay Pro, USA.

[3] = tested on: TNF-α production of HUVEC cells; experiment: TNF-α production of HUVEC cells, LPS/IL-1β/IFN-γ (Experiment 6-1); format: cell-based, human; details: for TNF-α Concentration: HUVEC, LPS 10 μg/mL, IL-1β, IFN-γ; for pIC50: Homo sapiens, LPS in the coexistence of IL-1β and IFN-γ, read-out: IC50 against production inhibition of TNF-α
Description: The results are in Table 6 in parallel.

[4] = tested on: mice with bacterial shock induced by LPS; experiment: LPS bacterial shock mice, survival, oral administration (Experiment 10); format: in vivo, BALB/c mice; details: LPS 18 mg/kg i.p.
[5] = tested on: lipopolysaccharide (LPS)-induced endotoxin shock mice; experiment: LPS-induced endotoxin shock mice, survival, ANO i.v. simultaneously with LPS (Experiment 1); format: in vivo, BALB/c mice; details: LPS 15 mg/kg i.p.; for Survival rate (%) of mice, 7 Hours: 7 hours after LPS; for Survival rate (%) of mice, 19 Hours: 19 hours after LPS; for Survival rate (%) of mice, 26 Hours: 26 hours after LPS; for Survival rate (%) of mice, 43 Hours: 43 hours after LPS
Experimental: USA, which had been dissolved in phosphate buffered saline (PBS) (Experiment groups 1 to 3). […] To the remaining five heads of another one group were intravenously administered with 0.2 mL/head of PBS simultaneously with the LPS administration (Experiment group 1). For each group, the survival number of mice was macroscopically observed up to 7 to 43 hours after the LPS administration, and based on this, the survival rate was determined for each group. The survival rate (%) of mice for each group was calculated by dividing the survival number of mice at each observation time with the survival number of mice at the initiation of this experiment, and multiplying the obtained value by 100.

Structure (SMILES): Nc1ncnc2c1ncn2[C@@H]1O[C@H](CO)[C@@H](O)[C@H]1O [AN, adenosine]
- Amount of expressed VCAM-1 ([1]; test substance 1 μM): 3,824
- Amount of expressed VCAM-1 ([1]; test substance 2 μM): 3,957
- Amount of expressed VCAM-1 ([1]; test substance 5 μM): 3,609**
- Amount of expressed VCAM-1 ([1]; test substance 10 μM): 2,823**
- concentration which significantly inhibited the expression of tissue factor ([2]; HUVEC cells): at least 5 μM
- Amount of expressed tissue factor ([2]; test substance 1 μM): 27.1
- Amount of expressed tissue factor ([2]; test substance 2 μM): 26.6
- Amount of expressed tissue factor ([2]; test substance 5 μM): 13.9**
- Amount of expressed tissue factor ([2]; test substance 10 μM): 4.5**
- TNF-α Concentration ([3]; test substance 1 μM): 53 pg/mL
- TNF-α Concentration ([3]; test substance 2 μM): 49.2 pg/mL
- TNF-α Concentration ([3]; test substance 5 μM): 40.3 pg/mL
- TNF-α Concentration ([3]; test substance 10 μM): 31.1** pg/mL
- pIC50 ([3]; HUVEC cells): 4.82

Structure (SMILES): Nc1c2ncn([C@@H]3O[C@H](CO)[C@@H](O)[C@H]3O)c2nc[n+]1[O-] [ANO, adenosine N1-oxide]
- Amount of expressed VCAM-1 ([1]; test substance 0.2 μM): 4,123
- Amount of expressed VCAM-1 ([1]; test substance 0.5 μM): 4,052
- Amount of expressed VCAM-1 ([1]; test substance 1 μM): 3,920
- Amount of expressed VCAM-1 ([1]; test substance 2 μM): 3,967
- Amount of expressed VCAM-1 ([1]; test substance 5 μM): 3,603*
- Amount of expressed VCAM-1 ([1]; test substance 10 μM): 2,823**
- inhibitory strength on tissue factor expression, stronger than adenosine ([2]; HUVEC cells): at least 10 times
- concentration which significantly inhibited the expression of tissue factor ([2]; HUVEC cells): at least 0.5 μM
- Amount of expressed tissue factor ([2]; test substance 0.2 μM): 27.6
- Amount of expressed tissue factor ([2]; test substance 0.5 μM): 13.5**
- Amount of expressed tissue factor ([2]; test substance 1 μM): 12.9**
- Amount of expressed tissue factor ([2]; test substance 2 μM): 9.4**
- Amount of expressed tissue factor ([2]; test substance 5 μM): 0**
- Amount of expressed tissue factor ([2]; test substance 10 μM): 0**
- Survival rate (%) of mice, 22 Hours ([4]; oral 400 mg/kg (200 × 2 shots)): 75%
- Survival rate (%) of mice, 31 Hours ([4]; oral 400 mg/kg (200 × 2 shots)): 75%
- Survival rate (%) of mice, 46 Hours ([4]; oral 400 mg/kg (200 × 2 shots)): 50%
- Survival rate (%) of mice, 55 Hours ([4]; oral 400 mg/kg (200 × 2 shots)): 50%
- Survival rate (%) of mice, 72 Hours ([4]; oral 400 mg/kg (200 × 2 shots)): 100%
- Survival rate (%) of mice, 79 Hours ([4]; oral 400 mg/kg (200 × 2 shots)): 50%
- Survival rate (%) of mice, 22 Hours ([4]; oral 600 mg/kg (200 × 3 shots)): 87.5%
- Survival rate (%) of mice, 31 Hours ([4]; oral 600 mg/kg (200 × 3 shots)): 87.5%
- Survival rate (%) of mice, 46 Hours ([4]; oral 600 mg/kg (200 × 3 shots)): 87.5%
- Survival rate (%) of mice, 55 Hours ([4]; oral 600 mg/kg (200 × 3 shots)): 87.5%
- Survival rate (%) of mice, 72 Hours ([4]; oral 600 mg/kg (200 × 3 shots)): 100%
- Survival rate (%) of mice, 79 Hours ([4]; oral 600 mg/kg (200 × 3 shots)): 75%
- Survival rate (%) of mice, 7 Hours ([5]; ANO 15 mg/kg body weight i.v.): 100%
- Survival rate (%) of mice, 19 Hours ([5]; ANO 15 mg/kg body weight i.v.): 100%
- Survival rate (%) of mice, 26 Hours ([5]; ANO 15 mg/kg body weight i.v.): 80%
- Survival rate (%) of mice, 43 Hours ([5]; ANO 15 mg/kg body weight i.v.): 80%
- Survival rate (%) of mice, 7 Hours ([5]; ANO 45 mg/kg body weight i.v.): 100%
- Survival rate (%) of mice, 19 Hours ([5]; ANO 45 mg/kg body weight i.v.): 100%
- Survival rate (%) of mice, 26 Hours ([5]; ANO 45 mg/kg body weight i.v.): 100%
- Survival rate (%) of mice, 43 Hours ([5]; ANO 45 mg/kg body weight i.v.): 80%
- TNF-α production inhibitory action stronger than that of adenosine ([3]; HUVEC cells, comparison of IC50): about 16 times
- TNF-α Concentration ([3]; test substance 0.2 μM): 51 pg/mL
- TNF-α Concentration ([3]; test substance 0.5 μM): 41.1 pg/mL
- TNF-α Concentration ([3]; test substance 1 μM): 25.1** pg/mL
- TNF-α Concentration ([3]; test substance 2 μM): 12.3** pg/mL
- TNF-α Concentration ([3]; test substance 5 μM): 1.8** pg/mL
- pIC50 ([3]; HUVEC cells): 6.01
